Measurements: ChEMBL document CHEMBL4130450, “Mixed Aryl Phosphonate Prodrugs of a Butyrophilin Ligand” (ACS Med Chem Lett, 2017)
Active and inactive are the calls of the source. The calls are words filed in the database; no cut-off is given here.

Legend:
[1] = target: T1, Butyrophilin subfamily 3 member A1 (Homo sapiens, UniProt O00481); experiment: Binding affinity to BTN3A1 intracellular domain (unknown origin) at 250 uM by isothermal titration calorimetry
Target sequence in this assay (O00481 30-513 limits assumed): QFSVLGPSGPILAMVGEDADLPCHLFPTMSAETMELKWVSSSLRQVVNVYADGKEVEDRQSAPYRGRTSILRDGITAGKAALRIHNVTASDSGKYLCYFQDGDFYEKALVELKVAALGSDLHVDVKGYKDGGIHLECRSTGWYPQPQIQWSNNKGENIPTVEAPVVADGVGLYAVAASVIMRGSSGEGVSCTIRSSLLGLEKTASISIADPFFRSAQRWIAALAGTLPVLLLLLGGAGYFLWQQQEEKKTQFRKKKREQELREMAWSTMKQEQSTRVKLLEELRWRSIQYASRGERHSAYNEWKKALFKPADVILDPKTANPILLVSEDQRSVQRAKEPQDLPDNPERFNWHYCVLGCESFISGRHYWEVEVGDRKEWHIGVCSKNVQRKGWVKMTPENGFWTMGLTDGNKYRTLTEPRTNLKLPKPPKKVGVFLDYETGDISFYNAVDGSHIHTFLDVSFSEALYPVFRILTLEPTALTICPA

[2] = target: T1, Butyrophilin subfamily 3 member A1; experiment: Activation of BTN3A1 in human PBMC-derived Vgamma9Vdelta2 T cells assessed as induction of interferon gamma production in response to K562 cells preincubated for 4 hrs […] followed by 11 days incubation post compound wash out with subsequent coculturing with Vgamma9Vdelta2 T cells for 20 hrs by ELISA; assay type: cell-based
Target sequence in this assay (O00481 whole entry, the tested form may be a part): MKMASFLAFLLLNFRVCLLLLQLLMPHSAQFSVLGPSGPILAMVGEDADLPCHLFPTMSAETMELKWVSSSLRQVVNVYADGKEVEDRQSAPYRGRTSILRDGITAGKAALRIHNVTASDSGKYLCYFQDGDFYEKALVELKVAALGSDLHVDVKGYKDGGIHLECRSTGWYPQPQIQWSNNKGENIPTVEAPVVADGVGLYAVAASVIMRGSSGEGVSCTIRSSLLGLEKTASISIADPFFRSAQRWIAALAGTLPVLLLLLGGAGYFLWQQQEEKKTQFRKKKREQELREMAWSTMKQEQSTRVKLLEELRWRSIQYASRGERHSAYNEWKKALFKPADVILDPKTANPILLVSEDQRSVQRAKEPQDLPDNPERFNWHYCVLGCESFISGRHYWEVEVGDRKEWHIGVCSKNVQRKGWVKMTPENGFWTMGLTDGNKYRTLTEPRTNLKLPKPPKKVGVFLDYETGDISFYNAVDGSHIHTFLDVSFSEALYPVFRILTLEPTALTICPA

[3] = Activation of BTN3A1 in human PBMC-derived Vgamma9Vdelta2 T cells assessed as induction of interleukin 2 stimulated cell proliferation by measuring increase in CD3 positive cells incubated for 3 days followed by 11 days incubation post compound wash out with subsequent stimulation with IL-2 every 3 days measured after 14 days by flow cytometry
[4] = target: T1, Butyrophilin subfamily 3 member A1; experiment: Inhibition of HMBPP binding to BTN3A1 intracellular domain (unknown origin) at compound to HMBPP molar ratio of 100 by isothermal titration calorimetry
Target sequence in this assay (O00481 30-513 limits assumed): as the sequence (O00481 30-513 limits assumed) above

| Compound | Activity [1] | EC50 [2] | also measured |
| --- | --- | --- | --- |
| C/C(=C\CCP(=O)(O)Oc1ccccc1)CO | inactive |  |  |
| C/C(=C\CCP(=O)(COC(=O)C(C)(C)C)OCOC(=O)C(C)(C)C)CO (stereo unspecified) |  | 24 nM |  |
| C/C(=C\CCP(=O)(COC(=O)C(C)(C)C)Oc1cccc2ccccc12)CO (stereo unspecified) |  | 9 nM |  |
| C/C(=C\CCP(=O)(O)O)CO |  |  | EC50 [3]: 4000 nM |
| C/C(=C\CCP(=O)(O)Oc1cccc2ccccc12)CO | inactive |  | inhibition [4]: inactive |
